# In patent publication US9901592B2 (priority 2008, dated 2018):
# Where two headings read alike, the source gives them in different places.
# What was measured:
# [1] = system: S. pneumoniae; assay: microbe, parasite or virus in culture; type: cell-based; conditions: for MIC: Streptococcus pneumoniae
# [2] = system: S. pneumoniae; type: cell-based
# [3] = system: S. pyogenes; type: cell-based; conditions: for Mutant selection frequencies: S. pyogenes
# [4] = system: S. aureus; assay: mouse systemic infection model (PD50); type: in vivo
# [5] = system: S. pneumoniae; assay: mouse subcutaneous abscess model; type: in vivo; conditions: for average log10 CFU/gram of abscess: S. pneumoniae 1629, 10 mg/Kg PO
# Protocol: Example. Efficacy was evaluated in several infection models. […] PD50s were determined 24 hr post infection. CEM-101 was further evaluated in a subcutaneous abscess mouse model against S. pneumoniae. CD-1 female mice were infected via SC injection of bacteria mixed with cyclodextran beads. Two hr post infection, mice received a single oral dose of CEM 101 or control agents. At 48 hr post dose, mice were euthanized, abscesses aseptically removed and bacteria enumerated. CFU per abscess was determined and compared to the untreated control. […] 24 hr post treatment, the thighs were processed and CFU/gram of thigh determined.
# Example. Mouse Subcutaneous Abscess. Bacteria were prepared from an overnight plate culture by re-suspending in saline and adjusting the suspension to a 0.1 OD at 625 nm of a 1:10 dilution. The adjusted bacterial suspension was mixed 1:2 with cyclodextran beads prepared as per package instructions. The right flanks of the mice were shaven and injected subcutaneously with 0.2 ml of the bacterial inoculum. Two hours post infection mice were treated via oral gavage with either test article or control drug. 48 hours post infection, mice were euthanized, abscesses aseptically removed, homogenized, serially diluted and plated on bacterial growth agar. After overnight incubation, colonies were counted and CFUs/gram of abscess were determined.
# Example. The ability of CEM101 to reduce the microbial load in abscess infection model was also assessed against S. pneumoniae isolates.
# [6] = system: S. pneumoniae; assay: neutropenic mouse thigh infection; type: in vivo; conditions: PO
# Protocol: Example. Neutropenic Mouse Thigh Infection. Mice were rendered neutropenic with IP injections of cyclophosamide at day −4 and day −1 of 150 mg/Kg and 100 mg/Kg, respectively. On day 0 mice were infected with approximately 5×10^5 CFU/ml of bacteria in a 0.1 ml volume into the right thigh. At 1.5 hours post infection mice received treatment via oral gavage. One group of infected mice were euthanized and thigh processed for bacterial titers to serve as T=0 controls. Twenty-four hours post treatment, the remaining mice were euthanized, thighs aseptically removed, weighed, homogenized, serially diluted and plated on bacterial growth media. CFUs per gram of thigh were calculated after overnight incubation of bacterial plates. The amount of test article required to achieve 1, 2, and 3 loge reductions from 24 hour control thighs were calculated. Additional studies were performed that fractionated the single treatment dose (Q24) into two (Q12), three (Q8) and four (Q6) equivalent doses to determine the pharmacodynamic nature of this compound. Further analysis includes static dose, EC50, 1 log kill and maximal effect (Emax).
# [7] = system: M. catarrhalis; assay: microbe, parasite or virus in culture; type: cell-based; conditions: Moraxella catarrhalis
# [8] = system: pneumococci; assay: microbe, parasite or virus in culture; type: cell-based, S. pneumoniae; conditions: Streptococcus pneumoniae
# [9] = system: streptococci; assay: organism not typed; type: cell-based
structure (smiles),measurement,setting,value
"CC[C@H]1OC(=O)[C@H](C)[C@@H](O[C@H]2C[C@@](C)(OC)[C@@H](O)[C@H](C)O2)[C@H](C)[C@@H](O[C@@H]2O[C@H](C)C[C@H](N(C)C)[C@H]2O)[C@](C)(OC)C[C@@H](C)C(=O)[C@H](C)[C@@H](O)[C@]1(C)O [CLR, clarithromycin]",strains with resistant clones / strains tested,[1]; S. pneumoniae,5/6
same,Parental MICs,"[1]; S. pneumoniae, 8 strains with varying resistotypes",0.016 to 16 µg/mL
same,MIC,"[1]; read-out: Initial MIC, strain 24 Macrolide-R [erm(B)], parent",> 64 µg/mL
same,MIC,"[1]; read-out: Initial MIC, strain 1076 Macrolide-R [erm(B)&mef(A)], parent",> 64 µg/mL
same,MIC,"[1]; read-out: Initial MIC, strain 1077 Macrolide-S, parent",0.016 µg/mL
same,MIC,"[1]; read-out: Initial MIC, strain 1635 Macrolide-R [erm(A)], parent",0.5 µg/mL
same,MIC,"[1]; read-out: Initial MIC, strain 2686 Macrolide-R [L4 mutation], parent",8 µg/mL
same,MIC,"[1]; read-out: Initial MIC, strain 3009 Macrolide-R [23SrRNA mutation], parent",16 µg/mL
same,MIC,"[1]; read-out: Initial MIC, strain 3665 Macrolide-R [mef(A)], parent",2 µg/mL
same,MIC,"[1]; read-out: Initial MIC, strain 7127 Macrolide-S [S20N in L4, A105V in L22], parent",0.03 µg/mL
same,MIC,"[1]; read-out: MIC of parents of resistant clones, S. pneumoniae (CEM-101: 7 strains)",0.03 to 16 µg/mL
same,MIC,"[1]; read-out: Selected Resistance MIC, strain 1077 Macrolide-S, after serial passages in the drug",0.008 µg/mL
same,MIC,"[1]; read-out: Selected Resistance MIC, strain 1635 Macrolide-R [erm(A)], after serial passages in the drug",> 64 µg/mL
same,MIC,"[1]; read-out: Selected Resistance MIC, strain 2686 Macrolide-R [L4 mutation], after serial passages in the drug",> 64 µg/mL
same,MIC,"[1]; read-out: Selected Resistance MIC, strain 3009 Macrolide-R [23SrRNA mutation], after serial passages in the drug",> 64 µg/mL
same,MIC,"[1]; read-out: Selected Resistance MIC, strain 3665 Macrolide-R [mef(A)], after serial passages in the drug",16 µg/mL
same,MIC,"[1]; read-out: Selected Resistance MIC, strain 7127 Macrolide-S [S20N in L4, A105V in L22], after serial passages in the drug",16 µg/mL
same,days until resistant clones (MIC increase),"[1]; daily passages, min. 14, max. 50",14 to 49 days
same,Retest MIC after 10 Antibiotic-free Subcultures,"[1]; strain 24 Macrolide-R [erm(B)], clone selected with CEM-101",>64 µg/mL
same,Retest MIC after 10 Antibiotic-free Subcultures,"[1]; strain 24 Macrolide-R [erm(B)], clone selected with TEL",>64 µg/mL
same,Retest MIC after 10 Antibiotic-free Subcultures,"[1]; strain 1076 Macrolide-R [erm(B)&mef(A)], clone selected with CEM-101",>64 µg/mL
same,Retest MIC after 10 Antibiotic-free Subcultures,"[1]; strain 1076 Macrolide-R [erm(B)&mef(A)], clone selected with TEL",>64 µg/mL
same,Retest MIC after 10 Antibiotic-free Subcultures,"[1]; strain 1077 Macrolide-S, clone selected with AZI",>64 µg/mL
same,Retest MIC after 10 Antibiotic-free Subcultures,"[1]; strain 1077 Macrolide-S, clone selected with CEM-101",0.06 µg/mL
same,Retest MIC after 10 Antibiotic-free Subcultures,"[1]; strain 1077 Macrolide-S, clone selected with CLN",>64 µg/mL
same,Retest MIC after 10 Antibiotic-free Subcultures,"[1]; strain 1077 Macrolide-S, clone selected with TEL",>64 µg/mL
same,Retest MIC after 10 Antibiotic-free Subcultures,"[1]; strain 1635 Macrolide-R [erm(A)], clone selected with AZI",>64 µg/mL
same,Retest MIC after 10 Antibiotic-free Subcultures,"[1]; strain 1635 Macrolide-R [erm(A)], clone selected with CEM-101",1 µg/mL
same,Retest MIC after 10 Antibiotic-free Subcultures,"[1]; strain 1635 Macrolide-R [erm(A)], clone selected with CLN",0.5 µg/mL
same,Retest MIC after 10 Antibiotic-free Subcultures,"[1]; strain 1635 Macrolide-R [erm(A)], clone selected with CLR",>64 µg/mL
same,Retest MIC after 10 Antibiotic-free Subcultures,"[1]; strain 2686 Macrolide-R [L4 mutation], clone selected with CEM-101",32 µg/mL
same,Retest MIC after 10 Antibiotic-free Subcultures,"[1]; strain 2686 Macrolide-R [L4 mutation], clone selected with CLR",>64 µg/mL
same,Retest MIC after 10 Antibiotic-free Subcultures,"[1]; strain 2686 Macrolide-R [L4 mutation], clone selected with TEL",16 µg/mL
same,Retest MIC after 10 Antibiotic-free Subcultures,"[1]; strain 3009 Macrolide-R [23SrRNA mutation], clone selected with CEM-101",>64 µg/mL
same,Retest MIC after 10 Antibiotic-free Subcultures,"[1]; strain 3009 Macrolide-R [23SrRNA mutation], clone selected with CLR",64 µg/mL
same,Retest MIC after 10 Antibiotic-free Subcultures,"[1]; strain 3665 Macrolide-R [mef(A)], clone selected with CEM-101",4 µg/mL
same,Retest MIC after 10 Antibiotic-free Subcultures,"[1]; strain 3665 Macrolide-R [mef(A)], clone selected with CLR",8 µg/mL
same,Retest MIC after 10 Antibiotic-free Subcultures,"[1]; strain 3665 Macrolide-R [mef(A)], clone selected with TEL",2 µg/mL
same,Retest MIC after 10 Antibiotic-free Subcultures,"[1]; strain 7127 Macrolide-S [S20N in L4, A105V in L22], clone selected with AZI",0.5 µg/mL
same,Retest MIC after 10 Antibiotic-free Subcultures,"[1]; strain 7127 Macrolide-S [S20N in L4, A105V in L22], clone selected with CEM-101",0.125 µg/mL
same,Retest MIC after 10 Antibiotic-free Subcultures,"[1]; strain 7127 Macrolide-S [S20N in L4, A105V in L22], clone selected with CLN",0.016 µg/mL
same,Retest MIC after 10 Antibiotic-free Subcultures,"[1]; strain 7127 Macrolide-S [S20N in L4, A105V in L22], clone selected with CLR",16 µg/mL
same,Retest MIC after 10 Antibiotic-free Subcultures,"[1]; strain 7127 Macrolide-S [S20N in L4, A105V in L22], clone selected with TEL",0.06 µg/mL
same,Mutant selection frequencies,"[2]; S. pneumoniae, at 2×MIC",<1.0×10^−9-5.0×10^−7
same,single step mutation frequency,"[2]; strain 1077 Macrolide-S, 2 × MIC",1.1 × 10^−9
same,single step mutation frequency,"[2]; strain 1077 Macrolide-S, 4 × MIC",<1.2 × 10^−10
same,single step mutation frequency,"[2]; strain 1077 Macrolide-S, 8 × MIC",<1.2 × 10^−10
same,single step mutation frequency,"[2]; strain 1635 Macrolide-R [erm(A)], 2 × MIC",<3.1 × 10^−9
same,single step mutation frequency,"[2]; strain 1635 Macrolide-R [erm(A)], 4 × MIC",<3.1 × 10^−9
same,single step mutation frequency,"[2]; strain 1635 Macrolide-R [erm(A)], 8 × MIC",<3.1 × 10^−9
same,single step mutation frequency,"[2]; strain 3665 Macrolide-R [mef(A)], 2 × MIC",5.0 × 10^−7
same,single step mutation frequency,"[2]; strain 3665 Macrolide-R [mef(A)], 4 × MIC",<5.0 × 10^−10
same,single step mutation frequency,"[2]; strain 3665 Macrolide-R [mef(A)], 8 × MIC",<5.0 × 10^−10
same,single step mutation frequency,"[2]; strain 7127 Macrolide-S [S20N in L4, A105V in L22], 2 × MIC",<1.0 × 10^−9
same,single step mutation frequency,"[2]; strain 7127 Macrolide-S [S20N in L4, A105V in L22], 4 × MIC",<1.0 × 10^−9
same,single step mutation frequency,"[2]; strain 7127 Macrolide-S [S20N in L4, A105V in L22], 8 × MIC",<1.0 × 10^−9
same,Mutant selection frequencies,[3]; at 2×MIC,<1.0×10^−10-1.7×10^−7
same,Mutant selection frequencies,[3]; at 8×MIC,<1.0×10^−10-5.0×10^−9
same,single step mutation frequency,"[3]; strain 237 Macrolide-R [L4 mutation], 2 × MIC",<3.3 × 10^−10
same,single step mutation frequency,"[3]; strain 237 Macrolide-R [L4 mutation], 4 × MIC",<3.3 × 10^−10
same,single step mutation frequency,"[3]; strain 237 Macrolide-R [L4 mutation], 8 × MIC",<3.3 × 10^−10
same,single step mutation frequency,"[3]; strain 2094 Macrolide-R [erm(A)], 2 × MIC",1.7 × 10^−7
same,single step mutation frequency,"[3]; strain 2094 Macrolide-R [erm(A)], 4 × MIC",1.0 × 10^−7
same,single step mutation frequency,"[3]; strain 2094 Macrolide-R [erm(A)], 8 × MIC",5.0 × 10^−9
same,single step mutation frequency,"[3]; strain 2132 Macrolide-S, 2 × MIC",<1.0 × 10^−10
same,single step mutation frequency,"[3]; strain 2132 Macrolide-S, 4 × MIC",<1.0 × 10^−10
same,single step mutation frequency,"[3]; strain 2132 Macrolide-S, 8 × MIC",<1.0 × 10^−10
same,PD50,[4]; MRSA,5.0 mg/kg
same,PD50,[4]; MRSA 300 (CA),19.5 mg/kg
same,PD50,"[4]; S. aureus, single oral dose 1 hr post infection",22.7 mg/kg
same,average log10 CFU/gram of abscess,[5]; 24 hours,~5.5 log10 CFU/gram
same,average log10 CFU/gram of abscess,[5]; 48 hours,~5.5 log10 CFU/gram
same,log decrease of CFU from untreated mice,"[5]; abscess, 10 mg/Kg QD dose",1.5 log10
same,Max. change in log10CFUs from 24 hr. controls,[6]; S. pneumoniae 1629,−5.75 log10CFUs
same,Dose for 2 log10 Reduction from 24 hour controls,"[6]; S. pneumoniae 1629, QD",9.0 mg/Kg
same,Max. change in log10CFUs from 24 hr. controls,[6]; S. pneumoniae 6303,−5.20 log10CFUs
same,MIC90,[7],0.12 µg/mL
same,MIC50,"[8]; pneumococci, L4 mutations (27)",16 µg/mL
same,MIC90,"[8]; pneumococci, L4 mutations (27)",32 µg/mL
same,MIC,"[8]; read-out: MIC range, pneumococci, L4 mutations (27)",1 to 32 µg/mL
same,MIC50,[9],0.03 µg/mL
same,MIC90,[9],0.03 µg/mL
same,MIC Range,[9],≦0.008-0.25 μg/ml
